Here are results for 5 compounds from patent publication US20180030500A1, “ENRICHMENT AND SELECTIVE CULTURE OF MYCOBACTERIA” (priority 2015, published 2018).

Where two headings read alike, the source gives them in different places.

One assay has as its system Mycobacteria. To be noted: 20 strains, 7 days.
A further assay concerns Pseudomonas aeruginosa. The settings on record: 50 strains, 7 days.
Another assay relates to Enterobacteria. The settings on record: 7 strains, 7 days.
The subject of the next assay is Gram-positive bacteria. The settings on record: 10 strains, 7 days.
[1] abbreviates: selective agent 32 mg/l in medium L.
The mark [2] stands for this setting: selective agent 64 mg/l in medium L.
Where [3] appears, read: selective agent 128 mg/l in medium L.
Where [4] appears, read: selective agent 2.5 mg/l in medium L.
[5] abbreviates: selective agent 5 mg/l in medium L.
Setting [6] is: selective agent 10 mg/l in medium L.
[7] abbreviates: selective agent 5.0 mg/l in medium L.
The mark [8] stands for this setting: selective agent 16 mg/l in medium L.
Where [9] appears, read: selective agent 400 mg/l in medium L.
The mark [10] stands for this setting: selective agent 800 mg/l in medium L.
Setting [11] is: selective agent 1600 mg/l in medium L.
[12] abbreviates: selective agent 0.125 mg/l in medium L.
[13] abbreviates: selective agent 0.25 mg/l in medium L.
Setting [14] is: selective agent 0.5 mg/l in medium L.

For the compound colistin methanesulfonate, the “Number of strains having shown growth” value in the assay with Mycobacteria (setting [1]) amounted to 20; in the assay with Mycobacteria (setting [2]) it was 20; with Mycobacteria (setting [3]) it was 20; in the assay with Pseudomonas aeruginosa (setting [1]) it was 5; in the assay with Pseudomonas aeruginosa (setting [2]), 5; in the assay with Pseudomonas aeruginosa (setting [3]), 5. The “Number of strains having shown growth” value in the assay with Enterobacteria (setting [1]) is 3; with Enterobacteria (setting [2]), 3; with Enterobacteria (setting [3]), 3; in the assay with Gram-positive bacteria (setting [1]), 7; with Gram-positive bacteria (setting [2]), 6; with Gram-positive bacteria (setting [3]), 5. The “Percentage of strains having shown growth” value (“Percentage” below) is “(100%)” with Mycobacteria (setting [1]); “(100%)” with Mycobacteria (setting [2]); “(100%)” in the assay on Mycobacteria (setting [3]); “(10%)” in the assay with Pseudomonas aeruginosa (setting [1]); “(10%)” in the assay on Pseudomonas aeruginosa (setting [2]); “(10%)” in the assay with Pseudomonas aeruginosa (setting [3]). The “Percentage” value with Enterobacteria (setting [1]) is “(43%)”; in the assay on Enterobacteria (setting [2]) it was “(43%)”; in the assay with Enterobacteria (setting [3]), “(43%)”; with Gram-positive bacteria (setting [1]), “(70%)”; in the assay with Gram-positive bacteria (setting [2]), “(60%)”; in the assay with Gram-positive bacteria (setting [3]), “(50%)”.

Consider `CN[C@H](CC(C)C)C(=O)N[C@H]1C(=O)N[C@@H](CC(N)=O)C(=O)N[C@H]2C(=O)N[C@H]3C(=O)N[C@H](C(=O)N[C@H](C(=O)O)c4cc(O)cc(O)c4-c4cc3ccc4O)[C@H](O)c3ccc(c(Cl)c3)Oc3cc2cc(c3O[C@@H]2O[C@H](CO)[C@@H](O)[C@H](O)[C@H]2O[C@H]2C[C@](C)(N)[C@H](O)[C@H](C)O2)Oc2ccc(cc2Cl)[C@H]1O` [vancomycin], for which the “Number of strains having shown growth” value in the assay with Mycobacteria (setting [4]) is reported as 19; in the assay on Mycobacteria (setting [5]), 19; in the assay on Mycobacteria (setting [6]), 19; with Pseudomonas aeruginosa (setting [4]), 50; in the assay on Pseudomonas aeruginosa (setting [7]) it was 50; in the assay on Pseudomonas aeruginosa (setting [6]), 50. The “Number of strains having shown growth” value with Enterobacteria (setting [4]) is 7; with Enterobacteria (setting [7]), 7; in the assay with Enterobacteria (setting [6]), 7; with Gram-positive bacteria (setting [4]), 0; in the assay on Gram-positive bacteria (setting [7]) it was 0; in the assay with Gram-positive bacteria (setting [6]) it was 0. In addition, the “Percentage” value is reported as “(95%)” with Mycobacteria (setting [4]); “(95%)” in the assay on Mycobacteria (setting [5]); “(95%)” in the assay with Mycobacteria (setting [6]); “(100%)” in the assay on Pseudomonas aeruginosa (setting [4]); “(100%)” in the assay on Pseudomonas aeruginosa (setting [7]); “(100%)” with Pseudomonas aeruginosa (setting [6]). For the same compound, the “Percentage” value in the assay with Enterobacteria (setting [4]), in the assay with Enterobacteria (setting [7]) and in the assay on Enterobacteria (setting [6]) was “(100%)” in each case.

Turning to `CCn1cc(C(=O)O)c(=O)c2ccc(C)nc21` [nalidixic acid], the “Number of strains having shown growth” value was found to be 20 with Mycobacteria (setting [8]); 20 in the assay on Mycobacteria (setting [1]); 20 in the assay with Mycobacteria (setting [2]); 50 with Pseudomonas aeruginosa (setting [8]); 43 in the assay on Pseudomonas aeruginosa (setting [1]); 35 with Pseudomonas aeruginosa (setting [2]). In addition, the “Number of strains having shown growth” value with Enterobacteria (setting [8]) is 4; in the assay with Enterobacteria (setting [1]), 0; in the assay on Enterobacteria (setting [2]) it was 0; in the assay with Gram-positive bacteria (setting [8]) it was 9; with Gram-positive bacteria (setting [1]) it was 8; with Gram-positive bacteria (setting [2]) it was 7. In addition, the “Percentage” value in the assay on Mycobacteria (setting [8]) is listed as “(100%)”; in the assay on Mycobacteria (setting [1]), “(100%)”; with Mycobacteria (setting [2]) it was “(100%)”; in the assay on Pseudomonas aeruginosa (setting [8]) it was “(100%)”; with Pseudomonas aeruginosa (setting [1]), “(86%)”; with Pseudomonas aeruginosa (setting [2]) it was “(70%)”. Moreover, the “Percentage” value in the assay with Enterobacteria (setting [8]) is “(57%)”; in the assay on Gram-positive bacteria (setting [8]), “(90%)”; in the assay on Gram-positive bacteria (setting [1]), “(80%)”; in the assay with Gram-positive bacteria (setting [2]) it was “(70%)”.

For `C[C@@H]1O[C@@H]1P(=O)(O)O` [fosfomycin], the “Number of strains having shown growth” value is 20 with Mycobacteria (setting [9]); 20 in the assay with Mycobacteria (setting [10]); 20 in the assay on Mycobacteria (setting [11]); 15 in the assay on Pseudomonas aeruginosa (setting [9]); 8 with Pseudomonas aeruginosa (setting [10]); 6 in the assay on Pseudomonas aeruginosa (setting [11]). Further, the “Number of strains having shown growth” value stood at 3 with Enterobacteria (setting [9]); 2 in the assay on Enterobacteria (setting [10]); 2 with Enterobacteria (setting [11]); 0 with Gram-positive bacteria (setting [9]); 0 with Gram-positive bacteria (setting [10]); 0 in the assay with Gram-positive bacteria (setting [11]). Moreover, the “Percentage” value in the assay with Mycobacteria (setting [9]) is on record as “(100%)”; with Mycobacteria (setting [10]), “(100%)”; in the assay on Mycobacteria (setting [11]) it was “(100%)”; in the assay on Pseudomonas aeruginosa (setting [9]) it was “(30%)”; with Pseudomonas aeruginosa (setting [10]) it was “(16%)”; with Pseudomonas aeruginosa (setting [11]) it was “(12%)”. Further, the “Percentage” value with Enterobacteria (setting [9]) was “(43%)”; in the assay on Enterobacteria (setting [10]), “(29%)”; in the assay with Enterobacteria (setting [11]) it was “(29%)”.

Take `CN(C)c1ccc(C(=C2C=CC(=[N+](C)C)C=C2)c2ccccc2)cc1` [malachite green]: the “Number of strains having shown growth” value is recorded as 16 in the assay on Mycobacteria (setting [12]); 20 in the assay with Mycobacteria (setting [13]); 20 with Mycobacteria (setting [14]); 50 in the assay with Pseudomonas aeruginosa (setting [12]); 50 with Pseudomonas aeruginosa (setting [13]); 50 in the assay on Pseudomonas aeruginosa (setting [14]). Also, the “Number of strains having shown growth” value in the assay on Enterobacteria (setting [12]) was 7; in the assay on Enterobacteria (setting [13]), 7; in the assay with Enterobacteria (setting [14]), 7; in the assay on Gram-positive bacteria (setting [12]), 10; in the assay with Gram-positive bacteria (setting [13]) it was 10; in the assay on Gram-positive bacteria (setting [14]) it was 9. The “Percentage” value is “(80%)” in the assay with Mycobacteria (setting [12]); “(100%)” with Mycobacteria (setting [13]); “(100%)” with Mycobacteria (setting [14]); “(100%)” in the assay on Pseudomonas aeruginosa (setting [12]); “(100%)” with Pseudomonas aeruginosa (setting [13]); “(100%)” in the assay with Pseudomonas aeruginosa (setting [14]). The “Percentage” value is reported as “(100%)” with Enterobacteria (setting [12]); “(100%)” in the assay with Enterobacteria (setting [13]); “(100%)” in the assay with Enterobacteria (setting [14]); “(100%)” in the assay with Gram-positive bacteria (setting [12]); “(100%)” with Gram-positive bacteria (setting [13]); “(90%)” with Gram-positive bacteria (setting [14]).
